Laboratory results taken from patent US11945813B2, “5-substituted 4-amino-1H-benzo[c][1,2,6]thiadiazine 2,2-dioxides and formulations and uses thereof” (Firmenich Incorporated, priority 2018, dated 2024).

Target: T1, T1R2/T1R3 taste receptor (Homo sapiens, UniProt Q8TE23)
T1 sequence (Q8TE23 20-839): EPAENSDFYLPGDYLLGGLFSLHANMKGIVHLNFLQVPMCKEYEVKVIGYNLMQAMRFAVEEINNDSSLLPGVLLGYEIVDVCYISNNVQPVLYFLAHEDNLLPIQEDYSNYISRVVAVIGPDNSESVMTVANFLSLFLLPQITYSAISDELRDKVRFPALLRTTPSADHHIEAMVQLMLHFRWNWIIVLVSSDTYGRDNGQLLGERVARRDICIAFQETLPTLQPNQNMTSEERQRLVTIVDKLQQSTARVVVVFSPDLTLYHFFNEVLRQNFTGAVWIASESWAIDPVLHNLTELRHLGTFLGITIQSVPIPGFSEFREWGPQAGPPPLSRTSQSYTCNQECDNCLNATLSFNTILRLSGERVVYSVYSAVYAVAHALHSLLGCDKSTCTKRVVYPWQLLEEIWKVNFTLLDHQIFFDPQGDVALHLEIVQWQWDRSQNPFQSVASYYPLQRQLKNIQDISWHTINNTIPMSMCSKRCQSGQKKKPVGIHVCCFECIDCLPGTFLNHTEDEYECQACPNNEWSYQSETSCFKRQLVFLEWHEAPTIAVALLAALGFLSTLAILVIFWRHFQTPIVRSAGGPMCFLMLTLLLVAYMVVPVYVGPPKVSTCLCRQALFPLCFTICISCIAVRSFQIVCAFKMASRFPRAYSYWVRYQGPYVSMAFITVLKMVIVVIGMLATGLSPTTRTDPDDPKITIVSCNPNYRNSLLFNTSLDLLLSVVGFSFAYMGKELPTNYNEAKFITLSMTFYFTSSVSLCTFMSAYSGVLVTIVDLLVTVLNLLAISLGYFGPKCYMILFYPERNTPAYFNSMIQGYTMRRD
T1 sequence (Q7RTX0 21-852 partner): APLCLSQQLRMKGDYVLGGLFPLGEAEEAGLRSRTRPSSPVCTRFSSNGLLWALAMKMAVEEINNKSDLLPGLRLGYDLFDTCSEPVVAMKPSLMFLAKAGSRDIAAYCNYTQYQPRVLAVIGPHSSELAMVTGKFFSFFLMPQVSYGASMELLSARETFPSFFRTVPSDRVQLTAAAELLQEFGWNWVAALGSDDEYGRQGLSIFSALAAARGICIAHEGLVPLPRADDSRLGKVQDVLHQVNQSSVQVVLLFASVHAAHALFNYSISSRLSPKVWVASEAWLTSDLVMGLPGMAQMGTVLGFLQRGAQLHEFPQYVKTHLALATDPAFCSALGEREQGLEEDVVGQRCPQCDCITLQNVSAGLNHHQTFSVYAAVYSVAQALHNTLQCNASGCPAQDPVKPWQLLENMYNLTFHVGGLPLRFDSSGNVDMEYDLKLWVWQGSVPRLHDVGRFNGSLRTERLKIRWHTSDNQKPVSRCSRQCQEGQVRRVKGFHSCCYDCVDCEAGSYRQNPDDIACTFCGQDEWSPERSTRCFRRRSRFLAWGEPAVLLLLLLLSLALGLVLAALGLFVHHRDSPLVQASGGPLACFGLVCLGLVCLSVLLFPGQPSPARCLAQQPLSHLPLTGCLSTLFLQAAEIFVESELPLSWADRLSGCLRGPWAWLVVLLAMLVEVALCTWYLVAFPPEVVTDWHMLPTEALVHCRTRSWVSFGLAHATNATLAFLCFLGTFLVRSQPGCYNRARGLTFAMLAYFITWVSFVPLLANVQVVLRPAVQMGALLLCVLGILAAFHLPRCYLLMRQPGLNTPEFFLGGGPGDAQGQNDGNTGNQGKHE
Test: Receptor-based assay: sweetener EC50 alone and with test compound (enhancement ratio)
Format: cell-based
Details: for Fructose Enhancement EC50 Ratio: sweetener fructose; for Sucralose Enhancement EC50 Ratio: sweetener sucralose; for Sucrose Enhancement EC50 Ratio: sweetener sucrose
Procedure, shortened: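 Sucrose, sucralose or fructose EC50 measured on human T1R2/T1R3, alone and with 3, 10 or 50 μM test compound. Enhancement is the EC50 ratio without/with compound, binned A >20, B 10-20, C >1 to <10.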

Compound	Fructose Enhancement EC50 Ratio (10 μM test compound)	Sucralose Enhancement EC50 Ratio (50 μM test compound)	Sucrose Enhancement EC50 Ratio (3 μM test compound)	Sucrose Enhancement EC50 Ratio (10 μM test compound)	Sucrose Enhancement EC50 Ratio (50 μM test compound)	Sucralose Enhancement EC50 Ratio (10 μM test compound)	Fructose Enhancement EC50 Ratio (50 μM test compound)
CC(C)(COc1cccc2c1C(N)=NS(=O)(=O)N2)Nc1ccnc(Cl)n1 [Compound 201, 4-amino-5-(2-((2-chloropyrimidin-4-yl)amino)-2-methylpropoxy)-1H-benzo[c][1,2,6]thiadiazine 2,2-dioxide]	C (A “C” value indicates an enhancement ratio greater than 1 and less than 10)	A (An “A” value indicates an enhancement ratio of greater than 20)	C (A “C” value indicates an enhancement ratio greater than 1 and less than 10)	C (A “C” value indicates an enhancement ratio greater than 1 and less than 10)	C (A “C” value indicates an enhancement ratio greater than 1 and less than 10)	–	–
NC1=NS(=O)(=O)Nc2cccc(OC[C@H]3CCCN(c4ccccn4)C3)c21 [Compound 104]	C (A “C” value indicates an enhancement ratio greater than 1 and less than 10)	A (An “A” value indicates an enhancement ratio of greater than 20)	C (A “C” value indicates an enhancement ratio greater than 1 and less than 10)	C (A “C” value indicates an enhancement ratio greater than 1 and less than 10)	C (A “C” value indicates an enhancement ratio greater than 1 and less than 10)	A (An “A” value indicates an enhancement ratio of greater than 20)	–
NC1=NS(=O)(=O)Nc2cccc(OC[C@H]3CCCN(c4cccc(C(=O)NC5CCCC5)n4)C3)c21 [Compound 408]	–	A (An “A” value indicates an enhancement ratio of greater than 20)	C (A “C” value indicates an enhancement ratio greater than 1 and less than 10)	B (A “B” value indicates an enhancement ratio from 10 to 20)	B (A “B” value indicates an enhancement ratio from 10 to 20)	A (An “A” value indicates an enhancement ratio of greater than 20)	C (A “C” value indicates an enhancement ratio greater than 1 and less than 10)
Cc1cc(C)nc(N2CCC[C@H](COc3cccc4c3C(N)=NS(=O)(=O)N4)C2)n1 [Compound 300, (S)-4-amino-5-((1-(4,6-dimethylpyrimidin-2-yl)piperidin-3-yl)methoxy)-1H-benzo[c][1,2,6]thiadiazine 2,2-dioxide]	–	A (An “A” value indicates an enhancement ratio of greater than 20)	C (A “C” value indicates an enhancement ratio greater than 1 and less than 10)	C (A “C” value indicates an enhancement ratio greater than 1 and less than 10)	C (A “C” value indicates an enhancement ratio greater than 1 and less than 10)	A (An “A” value indicates an enhancement ratio of greater than 20)	–
NC1=NS(=O)(=O)Nc2cccc(OC[C@H]3CCCN(c4ncccn4)C3)c21 [Compound 105]	C (A “C” value indicates an enhancement ratio greater than 1 and less than 10)	A (An “A” value indicates an enhancement ratio of greater than 20)	C (A “C” value indicates an enhancement ratio greater than 1 and less than 10)	C (A “C” value indicates an enhancement ratio greater than 1 and less than 10)	C (A “C” value indicates an enhancement ratio greater than 1 and less than 10)	A (An “A” value indicates an enhancement ratio of greater than 20)	C (A “C” value indicates an enhancement ratio greater than 1 and less than 10)
NC1=NS(=O)(=O)Nc2cccc(OC[C@H]3CCCN(c4cccc(C(=O)O)n4)C3)c21 [Compound 301, (S)-6-(3-(((4-amino-2,2-dioxido-1H-benzo[c][1,2,6]thiadiazin-5-yl)oxy)methyl)piperidin-1-yl)picolinic acid]	–	A (An “A” value indicates an enhancement ratio of greater than 20)	C (A “C” value indicates an enhancement ratio greater than 1 and less than 10)	C (A “C” value indicates an enhancement ratio greater than 1 and less than 10)	C (A “C” value indicates an enhancement ratio greater than 1 and less than 10)	A (An “A” value indicates an enhancement ratio of greater than 20)	–
NC1=NS(=O)(=O)Nc2cccc(OC[C@H]3CCCN(c4cc(C(=O)N5CCOCC5)ccn4)C3)c21 [Compound 614]	–	A (An “A” value indicates an enhancement ratio of greater than 20)	C (A “C” value indicates an enhancement ratio greater than 1 and less than 10)	–	A (An “A” value indicates an enhancement ratio of greater than 20)	A (An “A” value indicates an enhancement ratio of greater than 20)	C (A “C” value indicates an enhancement ratio greater than 1 and less than 10)
CCN(CC)C(=O)c1ccnc(N2CCC[C@H](COc3cccc4c3C(N)=NS(=O)(=O)N4)C2)c1 [Compound 611]	C (A “C” value indicates an enhancement ratio greater than 1 and less than 10)	A (An “A” value indicates an enhancement ratio of greater than 20)	C (A “C” value indicates an enhancement ratio greater than 1 and less than 10)	B (A “B” value indicates an enhancement ratio from 10 to 20)	C (A “C” value indicates an enhancement ratio greater than 1 and less than 10)	B (A “B” value indicates an enhancement ratio from 10 to 20)	–
Cc1cnc(N2CCC[C@H](COc3cccc4c3C(N)=NS(=O)(=O)N4)C2)nc1 [Compound 304]	C (A “C” value indicates an enhancement ratio greater than 1 and less than 10)	A (An “A” value indicates an enhancement ratio of greater than 20)	C (A “C” value indicates an enhancement ratio greater than 1 and less than 10)	C (A “C” value indicates an enhancement ratio greater than 1 and less than 10)	C (A “C” value indicates an enhancement ratio greater than 1 and less than 10)	A (An “A” value indicates an enhancement ratio of greater than 20)	C (A “C” value indicates an enhancement ratio greater than 1 and less than 10)
